# Measured values from patent US8497287B2, “Aminotetralin compounds as mu opioid receptor antagonists” (priority 2007, dated 2013).
# pKi: −log10 of the molar value.
# Tests used:
# [1] = biological target: T1, human mu opioid receptor (Homo sapiens, UniProt P35372); assay: biochemical; type: binding
# T1 construct: host or cells: CHO-K1 cells, membranes
# [2] = biological target: T1, human mu opioid receptor; assay: biochemical; conditions: read-out: intrinsic activity (IA), expressed as a percentage
# [3] = tested on: loperamide-induced delayed gastric emptying; assay: Rat gastric emptying assay, reversal of loperamide-induced delayed gastric emptying; type: in vivo; conditions: administered orally, loperamide 1 mg/kg s.c., gastric emptying model
# T1 sequence (P35372 whole entry): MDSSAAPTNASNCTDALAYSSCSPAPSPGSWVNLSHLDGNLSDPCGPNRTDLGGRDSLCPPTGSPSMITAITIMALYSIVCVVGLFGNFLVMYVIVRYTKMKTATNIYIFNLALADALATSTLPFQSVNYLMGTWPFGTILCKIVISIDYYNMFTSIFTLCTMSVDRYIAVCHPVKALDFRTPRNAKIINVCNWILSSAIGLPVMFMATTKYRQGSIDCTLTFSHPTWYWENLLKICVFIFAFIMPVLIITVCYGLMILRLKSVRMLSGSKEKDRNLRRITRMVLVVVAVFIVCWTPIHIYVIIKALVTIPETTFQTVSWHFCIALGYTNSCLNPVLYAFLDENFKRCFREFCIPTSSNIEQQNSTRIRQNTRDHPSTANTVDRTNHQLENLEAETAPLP
Compound,pKi [1],Emax [2] [%],"ID50, dose required for 50% reversal of the effects of loperamide [3] [mg/kg]"
"COC1Cc2ccc(C(N)=O)cc2C(C)(C)C1NCCC(=O)N1CCCCC1 (racemic) [Example 1, trans-6-Methoxy-8,8-dimethyl-7-(3-oxo-3-piperidin-1-yl-propylamino)-5,6,7,8-tetrahydro-naphthalene-2-carboxylic acid amide]",10.00,0,0.48
"CCC1(CC)c2cc(O)ccc2C[C@@H](OC)[C@@H]1NCC(Cc1ccccc1)C(=O)O (relative stereo) [Example 11, 2-Benzyl-3-(trans-1,1-diethyl-7-hydroxy-3-methoxy-1,2,3,4-tetrahydro-naphthalen-2-ylamino)-propionic acid]",8.90,-6,–
